Experimental data published in patent US6696432B1, “Combination of dehydroepiandrosterone and aromatase inhibitors and use of this combination to produce a medicament for treating relative and absolute androgen deficiency in men” (Schering Aktiengesellschaft, priority 1996, dated 2004).

Legend:
[1] = system: patients with BPH; test: Longer-term clinical studies with atamestane in BPH patients, hormone levels; format: in vivo, human
Protocol: (§1) In several clinical studies, atamestane was administered at varying dosages and over periods of up to 48 weeks to men in this age group to treat an existing BPH. […] Table 5 provides the testosterone/estrogen ratio before and after the administration of atamestane for patient populations from 4 studies and 7 treatment groups.
The administration of atamestane consistently results in a resetting of the testosterone/estradiol balance in favor of the androgenic component. This action was detectable over the entire observation period up to a maximum of 48 weeks of treatment.

[2] = system: men with BPH (average age above 60 years); test: Testosterone/estradiol (T/E2) ratio before and after atamestane, 4 clinical studies, 7 treatment groups; format: in vivo, human
Protocol: Gradual lowering of the estrogen concentration induces a counterregulatory stimulation of androgen synthesis. To a certain extent, there is an endogenic testosterone substitution, by which the androgen/estrogen balance is again brought back to the “youthful” range. This substantiates the results of the longer-term treatment of older men (average age above 60 years) with the selective aromatase inhibitor atamestane.
as §1
Assuming that the testosterone dominance that was reduced by 30-50% in the age group of patients over 60 years compared to the younger years (relative androgen deficiency) caused the symptoms of “male menopause,” the goal is thus to restore the original “balance of power” between androgens and estrogens by administering a preferably selective aromatase inhibitor by stimulating endogenic testosterone substitution without the necessity of supplying androgens exogenically. Based on the understanding that the ratio prevailing in age is the result of a 30-50% reduction compared to the youthful values, i.e., is always 50-70% of the previous value, the corresponding “youthful” previous value can be calculated for each individual patient. A patient with a testosterone/estradiol ratio of 230:1 must accordingly be adjusted to a new balance in the range between […] to 460:1, so that a preceding 30 or 50% reduction is compensated for.

[3] = system: patients with BPH; test: 24-week four-way study of atamestane versus placebo, testosterone serum concentration; format: in vivo, human; conditions: for Testosterone Serum Concentration Δ % (median ± SD): 24 weeks
[4] = system: patients with BPH; test: 48-week atamestane treatment (400 mg vs placebo), testosterone serum concentration; format: in vivo, human; conditions: daily dose 400 mg
From the text: (§2) Tables 3 and 4 show the results after a 48-week treatment.

[5] = system: patients with BPH; test: 48-week atamestane treatment (100 mg, 300 mg vs placebo), testosterone serum concentration; format: in vivo, human; conditions: for Testosterone Serum Concentration Δ % (X ± SD): 48 weeks
From the text: as §2

[6] = system: patients with prostate cancer; conditions: pharmacological doses; cited from earlier work

## CC1=CC(=O)C=C2CC[C@@H]3[C@H](CC[C@]4(C)C(=O)CC[C@@H]34)[C@@]12C [atamestane, 1-Methyl-androsta-1,4-diene-3,17-dione]
[1]; daily doses of 100 mg-600 mg
  peripheral estrogen reduction: equally intense
[1]; treatment lasting 24 to 48 weeks, patients with BPH
  testosterone concentration after longer-term treatment: significant increase
[2]; 100 mg, 24 weeks
  T/E2 Ratio % Δ: +48%
[2]; 100 mg, 48 weeks
  T/E2 Ratio % Δ: +41%
[2]; 200 mg t.i.d., 8 weeks
  T/E2 Ratio % Δ: +46%
[2]; 300 mg, 24 weeks
  T/E2 Ratio % Δ: +58%
[2]; 300 mg, 48 weeks
  T/E2 Ratio % Δ: +46%
[2]; 400 mg, 48 weeks
  T/E2 Ratio % Δ: +54%
[2]; 600 mg, 24 weeks
  T/E2 Ratio % Δ: +61%
[2]; daily dose of 100 mg
  achieved T/E2 versus calculated "youthful" target range: target range is generally readily met
[2]; higher dosages (above 100 mg daily)
  achieved T/E2 versus calculated "youthful" target range: somewhat above the target range
[2]; varying dosages, periods of up to 48 weeks
  alteration of the testosterone/estradiol ratio: significant alteration of the testosterone/estradiol ratio in favor of testosterone
[3]; daily dose 100 mg
  Testosterone Serum Concentration Δ % (median ± SD): 29.57 ± 34.70%
[3]; daily dose 100 mg, previous value 4.41
  Testosterone Serum Concentration After 24 Weeks: 5.57 ng/mL
[3]; daily dose 300 mg
  Testosterone Serum Concentration Δ % (median ± SD): 40.88 ± 156.12%
[3]; daily dose 300 mg, previous value 4.50
  Testosterone Serum Concentration After 24 Weeks: 6.15 ng/mL
[3]; daily dose 600 mg
  Testosterone Serum Concentration Δ % (median ± SD): 41.19 ± 37.62%
[3]; daily dose 600 mg, previous value 3.78
  Testosterone Serum Concentration After 24 Weeks: 5.40 ng/mL
[4]; 48 weeks
  Testosterone Serum Concentration Δ % (X ± SD): 42.9 ± 53.5%
[4]; previous value 4.2
  Testosterone Serum Concentration After 48 Weeks: 5.4 ng/mL
[5]; daily dose 100 mg
  Testosterone Serum Concentration Δ % (X ± SD): 19.0 ± 36.8%
[5]; daily dose 100 mg, previous value 5.1
  Testosterone Serum Concentration After 48 Weeks: 5.9 ng/mL
[5]; daily dose 300 mg
  Testosterone Serum Concentration Δ % (X ± SD): 41.7 ± 46.4%
[5]; daily dose 300 mg, previous value 4.7
  Testosterone Serum Concentration After 48 Weeks: 6.6 ng/mL

## CC/C(=C(/CC)c1ccc(O)cc1)c1ccc(O)cc1 [diethylstilbestrol]
[6]
  testosterone level in the serum: castration level
